Results published in US20210255193A1, “LYSINE REACTIVE PROBES AND USES THEREOF” (The Scripps Research Institute, priority 2017, published 2021).

What was measured:
Assay in all cases: competitive isoTOP-ABPP
Assay type in all cases: binding
FAH Fumarylacetoacetase = molecular target: T1, FAH Fumarylacetoacetase (Homo sapiens, UniProt P16930); conditions: for isoTOP-ABPP ratio (R) at liganded lysine P16930_K241 / R value (DMSO/fragment) for probe 1 labeling / isoTOP-ABPP reactivity ratio at lysine P16930_K241: 50 uM, in vitro; for isoTOP-ABPP ratio (R) at liganded lysine P16930_K241: sol, 231; for R value (DMSO/fragment) for probe 1 labeling: P16930_K241; for R value (DMSO/fragment) for probe 1 labeling / isoTOP-ABPP reactivity ratio at lysine P16930_K241: 231 sol; for isoTOP-ABPP ratio, lysine P16930_K241: 50 uM_231_sol_in vitro
T1 construct: isoTOP-ABPP experiments performed in cell lysates (in vitro); endogenous in cells; host or cells: soluble proteome of human cancer cell lines (MDA-MB-231; Ramos and Jurkat also prepared)
T1 sequence (P16930 1-419): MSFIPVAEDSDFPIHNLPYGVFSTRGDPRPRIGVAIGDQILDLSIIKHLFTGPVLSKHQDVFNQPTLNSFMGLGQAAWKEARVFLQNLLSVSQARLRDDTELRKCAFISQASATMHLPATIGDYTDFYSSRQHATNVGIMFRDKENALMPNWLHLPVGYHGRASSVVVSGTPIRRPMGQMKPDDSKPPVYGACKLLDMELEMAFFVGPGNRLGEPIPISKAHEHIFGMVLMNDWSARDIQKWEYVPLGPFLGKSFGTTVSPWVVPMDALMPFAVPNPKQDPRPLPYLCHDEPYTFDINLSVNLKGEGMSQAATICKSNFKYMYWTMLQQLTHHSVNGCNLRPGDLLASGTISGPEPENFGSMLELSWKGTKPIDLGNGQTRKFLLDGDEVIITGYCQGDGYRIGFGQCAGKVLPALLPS
Method in brief: (§1)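 Cell lysate (0.5 ml) was pre-treated with fragment, 50 μM for activated esters or 100 μM for guanidinylating agents, versus DMSO, then labeled 1 h at ambient temperature with 0.1 mM STP-alkyne. Light/heavy TEV tags attached by CuAAC; R = DMSO/compound MS1 peak-area ratio, median per lysine.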

[1] = molecular target: T2, PFKM 6-phosphofructokinase, muscle type (Homo sapiens, UniProt P08237); conditions: for isoTOP-ABPP ratio (R) at liganded lysine P08237_K678 / R value (DMSO/fragment) for probe 1 labeling / isoTOP-ABPP reactivity ratio at lysine P08237_K678: 50 uM, in vitro; for isoTOP-ABPP ratio (R) at liganded lysine P08237_K678: sol, 231; for R value (DMSO/fragment) for probe 1 labeling: P08237_K678; for R value (DMSO/fragment) for probe 1 labeling / isoTOP-ABPP reactivity ratio at lysine P08237_K678: 231 sol; for isoTOP-ABPP ratio, lysine P08237_K678: 50 uM_231_sol_in vitro
T2 construct: isoTOP-ABPP experiments performed in cell lysates (in vitro); endogenous in cells; host or cells: MDA-MB-231 soluble lysate
T2 sequence (P08237 1-780): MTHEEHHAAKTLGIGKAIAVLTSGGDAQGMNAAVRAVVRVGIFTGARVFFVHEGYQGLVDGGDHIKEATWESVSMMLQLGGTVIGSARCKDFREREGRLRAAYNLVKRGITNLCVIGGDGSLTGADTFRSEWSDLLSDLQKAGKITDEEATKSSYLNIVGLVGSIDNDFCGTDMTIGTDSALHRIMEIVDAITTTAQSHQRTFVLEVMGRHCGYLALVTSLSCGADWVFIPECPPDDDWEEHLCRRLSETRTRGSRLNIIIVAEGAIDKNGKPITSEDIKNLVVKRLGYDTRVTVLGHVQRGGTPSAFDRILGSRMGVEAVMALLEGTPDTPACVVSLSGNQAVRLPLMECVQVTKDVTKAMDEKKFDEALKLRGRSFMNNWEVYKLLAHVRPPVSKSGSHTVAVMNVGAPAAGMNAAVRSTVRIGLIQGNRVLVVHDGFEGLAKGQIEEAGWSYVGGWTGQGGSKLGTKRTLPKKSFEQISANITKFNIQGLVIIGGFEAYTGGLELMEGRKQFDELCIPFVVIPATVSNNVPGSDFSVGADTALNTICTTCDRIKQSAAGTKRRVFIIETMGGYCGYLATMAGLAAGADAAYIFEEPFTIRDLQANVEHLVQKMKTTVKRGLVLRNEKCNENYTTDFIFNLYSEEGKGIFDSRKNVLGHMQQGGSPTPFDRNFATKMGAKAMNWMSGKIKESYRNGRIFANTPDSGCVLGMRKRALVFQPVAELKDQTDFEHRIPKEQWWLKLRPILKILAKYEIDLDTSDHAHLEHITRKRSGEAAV
Method in brief: as §1

[2] = molecular target: T3, MTOR Serine/threonine-protein kinase mTOR (Homo sapiens, UniProt P42345); conditions: for R value (DMSO/fragment) for probe 1 labeling: P42345_K2066; for R value (DMSO/fragment) for probe 1 labeling / isoTOP-ABPP ratio (R) at liganded lysine P42345_K2066 / isoTOP-ABPP reactivity ratio at lysine P42345_K2066: 50 uM, in vitro; for R value (DMSO/fragment) for probe 1 labeling / isoTOP-ABPP reactivity ratio at lysine P42345_K2066: 231 sol; for isoTOP-ABPP ratio (R) at liganded lysine P42345_K2066: sol, 231; for isoTOP-ABPP ratio, lysine P42345_K2066: 50 uM_231_sol_in vitro
T3 construct: isoTOP-ABPP experiments performed in cell lysates (in vitro); endogenous in cells; host or cells: soluble proteome of human cancer cell lines (MDA-MB-231; Ramos and Jurkat also prepared)
Method in brief: as §1

Compound	isoTOP-ABPP ratio (R) at liganded lysine P16930_K241 (FAH Fumarylacetoacetase)	isoTOP-ABPP ratio (R) at liganded lysine P08237_K678 [1]	isoTOP-ABPP reactivity ratio at lysine P16930_K241 (FAH Fumarylacetoacetase)	isoTOP-ABPP reactivity ratio at lysine P08237_K678 [1]	isoTOP-ABPP reactivity ratio at lysine P42345_K2066 [2]	also measured
CC(C)(C)OC(=O)NCCCC(=O)Oc1ccc([N+](=O)[O-])cc1[N+](=O)[O-] [fragment 41, 2,4-Dinitrophenyl 4-((tert-butoxycarbonyl)amino)butanoate]	1.4	2.0				
Cn1cc(CC(=O)Oc2c(F)c(F)c(F)c(F)c2F)c2ccccc21 [fragment 22, Pentafluorophenyl 2-(1-methyl-1H-indol-3-yl)acetate]						R value (DMSO/fragment) for probe 1 labeling (FAH Fumarylacetoacetase): 3.0; R value (DMSO/fragment) for probe 1 labeling [1]: 1.1; R value (DMSO/fragment) for probe 1 labeling [2]: 2.8
O=C(Oc1ccc([N+](=O)[O-])cc1[N+](=O)[O-])c1ccc(-c2ccccc2)cc1 [fragment 37, 2,4-Dinitrophenyl [1,1′-biphenyl]-4-carboxylate]	1.0	1.0				isoTOP-ABPP ratio (R) at liganded lysine P42345_K2066 [2]: 1.0
COc1cc(CCC(=O)Oc2ccc([N+](=O)[O-])cc2[N+](=O)[O-])cc(OC)c1OC [fragment 33, 2,4-Dinitrophenyl 3-(3,4,5-trimethoxyphenyl)propanoate]			1.7	4.0	1.1	
O=C(Oc1c(F)c(F)c(F)c(F)c1F)C(c1ccccc1)c1ccccc1 [fragment 20, Pentafluorophenyl 2,2-diphenylacetate]						R value (DMSO/fragment) for probe 1 labeling (FAH Fumarylacetoacetase): 1.0; R value (DMSO/fragment) for probe 1 labeling [1]: 1.4; R value (DMSO/fragment) for probe 1 labeling [2]: 1.0
O=C(Oc1ccc([N+](=O)[O-])cc1[N+](=O)[O-])c1ccc2ccccc2n1 [fragment 35, 2,4-Dinitrophenyl quinoline-2-carboxylate]	3.4	1.2				isoTOP-ABPP ratio (R) at liganded lysine P42345_K2066 [2]: 1.1
O=C(CCc1ccc2c(c1)OCO2)Oc1ccc([N+](=O)[O-])cc1[N+](=O)[O-] [fragment 45, 2,4-Dinitrophenyl 3-(benzo[d][1,3]dioxol-5-yl)propanoate]						isoTOP-ABPP ratio, lysine P16930_K241 (FAH Fumarylacetoacetase): 1.3; isoTOP-ABPP ratio, lysine P08237_K678 [1]: 4.8; isoTOP-ABPP ratio, lysine P42345_K2066 [2]: 1.1
COc1cc(CCC(=O)Oc2c(F)c(F)c(F)c(F)c2F)cc(OC)c1OC [fragment 23, Pentafluorophenyl 3-(3,4,5-trimethoxyphenyl)propanoate]						R value (DMSO/fragment) for probe 1 labeling (FAH Fumarylacetoacetase): 2.8; R value (DMSO/fragment) for probe 1 labeling [1]: 1.0; R value (DMSO/fragment) for probe 1 labeling [2]: 1.1
O=C(Oc1ccc([N+](=O)[O-])cc1[N+](=O)[O-])c1ccccc1Nc1cccc(C(F)(F)F)c1 [fragment 40, 2,4-Dinitrophenyl 2-((3-(trifluoromethyl)phenyl)amino)benzoate]	1.4	0.9				isoTOP-ABPP ratio (R) at liganded lysine P42345_K2066 [2]: 0.8
O=C(ON1C(=O)CCC1=O)c1cc(C(F)(F)F)cc(C(F)(F)F)c1 [fragment 46, 3,5-Bis(trifluoromethyl)benzoic acid NHS ester]						isoTOP-ABPP ratio, lysine P16930_K241 (FAH Fumarylacetoacetase): 8.1; isoTOP-ABPP ratio, lysine P08237_K678 [1]: 1.3; isoTOP-ABPP ratio, lysine P42345_K2066 [2]: 1.5
O=C(Oc1ccc([N+](=O)[O-])cc1[N+](=O)[O-])c1ccc(Oc2ccccc2)cc1 [fragment 39, 2,4-Dinitrophenyl 4-phenoxybenzoate]	1.2	1.0				
O=C(Oc1c(F)c(F)c(F)c(F)c1F)c1ccc2ccccc2n1 [fragment 25, Pentafluorophenyl quinoline-2-carboxylate]			5.2	1.3		
O=C(Oc1ccc([N+](=O)[O-])cc1[N+](=O)[O-])C(c1ccccc1)c1ccccc1 [fragment 30, 2,4-Dinitrophenyl 2,2-diphenylacetate]			2.7	20.0	3.5	
O=C(Oc1ccc([N+](=O)[O-])cc1[N+](=O)[O-])c1cc(C(F)(F)F)cc(C(F)(F)F)c1 [fragment 31, 2,4-Dinitrophenyl 3,5-bis(trifluoromethyl)benzoate]			20.0	1.1	1.1	
O=C(CN1C(=O)c2ccccc2C1=O)Oc1c(F)c(F)c(F)c(F)c1F [fragment 27, Pentafluorophenyl 2-(1,3-dioxoisoindolin-2-yl)acetate]			1.8	2.6	2.5	
CC(=O)Oc1ccc([N+](=O)[O-])cc1[N+](=O)[O-] [fragment 43, 2,4-Dinitrophenyl acetate]	1.4	1.3				isoTOP-ABPP ratio (R) at liganded lysine P42345_K2066 [2]: 1.6
O=C(Oc1ccc([N+](=O)[O-])cc1[N+](=O)[O-])C(c1ccccc1)(c1ccccc1)c1ccccc1 [fragment 42, 2,4-Dinitrophenyl 2,2,2-triphenylacetate]	0.9	0.9				
O=C(Oc1c(F)c(F)c(F)c(F)c1F)c1cc(C(F)(F)F)cc(C(F)(F)F)c1 [fragment 21, Pentafluorophenyl 3,5-bis(trifluoromethyl)benzoate]						R value (DMSO/fragment) for probe 1 labeling (FAH Fumarylacetoacetase): 2.0; R value (DMSO/fragment) for probe 1 labeling [1]: 0.9; R value (DMSO/fragment) for probe 1 labeling [2]: 0.7
Cn1cc(CC(=O)Oc2ccc([N+](=O)[O-])cc2[N+](=O)[O-])c2ccccc21 [fragment 32, 2,4-Dinitrophenyl 2-(1-methyl-1H-indol-3-yl)acetate]			2.2	15.4	8.0	
O=C(CCc1cn(-c2ccccc2)nc1-c1ccccc1)Oc1ccc([N+](=O)[O-])cc1[N+](=O)[O-] [fragment 29, 2,4-Dinitrophenyl 3-(1,3-diphenyl-1H-pyrazol-4-yl)propanoate]			1.7	1.8	1.0	
O=C(Oc1c(F)c(F)c(F)c(F)c1F)C1CCN(C(=O)OCc2ccccc2)CC1 [fragment 24, 1-Benzyl 4-(pentafluorophenyl) piperidine-1,4-dicarboxylate]			1.1	1.1	1.0	
NC(=O)c1cc(C(F)(F)F)cc(C(F)(F)F)c1 [fragment 51, reference compound]						isoTOP-ABPP ratio, lysine P16930_K241 (FAH Fumarylacetoacetase): 0.9; isoTOP-ABPP ratio, lysine P08237_K678 [1]: 0.8; isoTOP-ABPP ratio, lysine P42345_K2066 [2]: 0.8
N#Cc1ccc(C(=O)Oc2ccc([N+](=O)[O-])cc2[N+](=O)[O-])cc1 [fragment 44, 2,4-Dinitrophenyl 4-cyanobenzoate]						isoTOP-ABPP ratio, lysine P16930_K241 (FAH Fumarylacetoacetase): 2.5; isoTOP-ABPP ratio, lysine P08237_K678 [1]: 1.9; isoTOP-ABPP ratio, lysine P42345_K2066 [2]: 1.7
O=C(CCc1coc2cc(F)ccc2c1=O)Oc1c(F)c(F)c(F)c(F)c1F [fragment 26, Pentafluorophenyl 3-(7-fluoro-4-oxo-4H-chromen-3-yl)propanoate]			5.0	1.4	2.8	
O=C(Oc1ccc([N+](=O)[O-])cc1[N+](=O)[O-])C1CCN(C(=O)OCc2ccccc2)CC1 [fragment 34, 1-Benzyl 4-(2,4-dinitrophenyl) piperidine-1,4-dicarboxylate]	1.2	1.1				isoTOP-ABPP ratio (R) at liganded lysine P42345_K2066 [2]: 1.1
